Reference: US9695155B2, “Herbicidal substituted pyrimidinyloxy benzene compounds” (E. I. DU PONT DE NEMOURS AND COMPANY, priority 2013, dated 2017)

Legend:
barnyardgrass [1] = assay: Test A preemergence; assay type: in vivo, Echinochloa crus-galli; conditions: for Barnyardgrass plant response rating: 500 g ai/ha, approx. 10 days
How it was run: (§1)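 Visual injury scored 0–100 (100 = complete control) against untreated controls about 10 days after treatment in a greenhouse. Test chemicals, formulated with surfactant in non-phytotoxic solvent, were sprayed on soil preemergence or on 2-10 cm, one- to two-leaf plants postemergence.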

large (Lg) crabgrass [2] = assay: Test A preemergence; assay type: in vivo, Digitaria sanguinalis; conditions: for Crabgrass, Large plant response rating: 500 g ai/ha, approx. 10 days
How it was run: as §1

giant foxtail [3] = assay: Test A preemergence; assay type: in vivo, Setaria faberii; conditions: for Plant response rating, Foxtail, Giant: 125 g ai/ha, 0 to 100 scale where 0 is no effect and 100 is complete control; for Foxtail, Giant plant response rating: 0 to 100 scale, 0 no effect, 100 complete control, approx. 10 days
How it was run: as §1

morningglory [4] = assay: Test A preemergence; assay type: in vivo, Ipomoea spp.; conditions: for Plant response rating, Morningglory: 125 g ai/ha, 0 to 100 scale where 0 is no effect and 100 is complete control; for Morningglory plant response rating: 0 to 100 scale, 0 no effect, 100 complete control, approx. 10 days
How it was run: as §1

pigweed [5] = assay: Test A preemergence; assay type: in vivo, Amaranthus retroflexus; conditions: for Plant response rating, Pigweed: 125 g ai/ha, 0 to 100 scale where 0 is no effect and 100 is complete control; for Pigweed plant response rating: 0 to 100 scale, 0 no effect, 100 complete control, approx. 10 days
How it was run: as §1

velvetleaf [6] = assay: Test A preemergence; assay type: in vivo, Abutilon theophrasti; conditions: for Plant response rating, Velvetleaf: 125 g ai/ha, 0 to 100 scale where 0 is no effect and 100 is complete control; for Velvetleaf plant response rating: 0 to 100 scale, 0 no effect, 100 complete control, approx. 10 days
How it was run: as §1

wheat [7] = assay: Test A preemergence; assay type: in vivo, Triticum aestivum; conditions: for Plant response rating, Wheat: 125 g ai/ha, 0 to 100 scale where 0 is no effect and 100 is complete control; for Wheat plant response rating: 0 to 100 scale, 0 no effect, 100 complete control, approx. 10 days
How it was run: as §1

corn [8] = assay: Test A preemergence; assay type: in vivo, Zea mays; conditions: for Corn plant response rating: 500 g ai/ha, approx. 10 days
How it was run: as §1

barnyardgrass [9] = assay: Test A postemergence; assay type: in vivo, Echinochloa crus-galli
How it was run: as §1

large (Lg) crabgrass [10] = assay: Test A postemergence; assay type: in vivo, Digitaria sanguinalis
How it was run: as §1

giant foxtail [11] = assay: Test A postemergence; assay type: in vivo, Setaria faberii
How it was run: as §1

morningglory [12] = assay: Test A postemergence; assay type: in vivo, Ipomoea spp.
How it was run: as §1

pigweed [13] = assay: Test A postemergence; assay type: in vivo, Amaranthus retroflexus
How it was run: as §1

velvetleaf [14] = assay: Test A postemergence; assay type: in vivo, Abutilon theophrasti
How it was run: as §1

wheat [15] = assay: Test A postemergence; assay type: in vivo, Triticum aestivum
How it was run: as §1

corn [16] = assay: Test A postemergence; assay type: in vivo, Zea mays
How it was run: as §1

rice = assay: Test B flooded paddy test; assay type: in vivo, Oryza sativa; conditions: Flood, 250 g ai/ha; 0 to 100 scale where 0 is no effect and 100 is complete control
How it was run: (§2)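 Greenhouse flooded-pot test: compounds dosed into 3 cm standing water over 2-leaf plants, flood held constant. Rated visually after 13–15 days on 0–100 (complete control = 100); a dash marks no test result.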

sedge, umbrella = assay: Test B flooded paddy test; assay type: in vivo, Cyperus difformis; conditions: Flood, 250 g ai/ha; 0 to 100 scale where 0 is no effect and 100 is complete control
How it was run: as §2

Heteranthera limosa = assay: Test B flooded paddy test; assay type: in vivo; conditions: Flood, 250 g ai/ha; 0 to 100 scale where 0 is no effect and 100 is complete control
How it was run: as §2

barnyardgrass [17] = assay: Test B flooded paddy test; assay type: in vivo, Echinochloa crus-galli; conditions: Flood, 250 g ai/ha; 0 to 100 scale where 0 is no effect and 100 is complete control
How it was run: as §2

[18] = 125 g ai/ha, 0 to 100 scale where 0 is no effect and 100 is complete control
[19] = 0 to 100 scale, 0 no effect, 100 complete control
[20] = 500 g ai/ha, 0 to 100 scale, 0 no effect, 100 complete control
[21] = 1000 g ai/ha, 0 to 100 scale, 0 no effect, 100 complete control

COc1ccc(Oc2ncc(Cl)cn2)c(-n2cc(Br)cn2)c1 [Compound 42]
Plant response rating, Barnyardgrass (barnyardgrass [1]; [18]): 0
Barnyardgrass plant response rating (barnyardgrass [1]; [19]): 10
Plant response rating, Crabgrass, Large (large (Lg) crabgrass [2]; [18]): 10
Crabgrass, Large plant response rating (large (Lg) crabgrass [2]; [19]): 30
Plant response rating, Foxtail, Giant (giant foxtail [3]): 10
Foxtail, Giant plant response rating (giant foxtail [3]; 500 g ai/ha): 20
Plant response rating, Morningglory (morningglory [4]): 0
Morningglory plant response rating (morningglory [4]; 500 g ai/ha): 0
Plant response rating, Pigweed (pigweed [5]): 0
Pigweed plant response rating (pigweed [5]; 500 g ai/ha): 20
Plant response rating, Velvetleaf (velvetleaf [6]): 60
Velvetleaf plant response rating (velvetleaf [6]; 500 g ai/ha): 60
Plant response rating, Wheat (wheat [7]): 0
Wheat plant response rating (wheat [7]; 500 g ai/ha): 0
Plant response rating, Corn (corn [8]; [18]): 0
Corn plant response rating (corn [8]; [19]): 0
Plant response rating, Barnyardgrass (barnyardgrass [9]; [18]): 0
Plant response rating, Barnyardgrass (barnyardgrass [9]; [20]): 0
Plant response rating, Crabgrass, Large (large (Lg) crabgrass [10]; [18]): 10
Plant response rating, Crabgrass, Large (large (Lg) crabgrass [10]; [20]): 50
Plant response rating, Foxtail, Giant (giant foxtail [11]; [18]): 0
Plant response rating, Foxtail, Giant (giant foxtail [11]; [20]): 30
Plant response rating, Morningglory (morningglory [12]; [18]): 20
Plant response rating, Morningglory (morningglory [12]; [20]): 40
Plant response rating, Pigweed (pigweed [13]; [18]): 0
Plant response rating, Pigweed (pigweed [13]; [20]): 30
Plant response rating, Velvetleaf (velvetleaf [14]; [18]): 60
Plant response rating, Velvetleaf (velvetleaf [14]; [20]): 70
Plant response rating, Wheat (wheat [15]; [18]): 0
Plant response rating, Wheat (wheat [15]; [20]): 0
Plant response rating, Corn (corn [16]; [18]): 0
Plant response rating, Corn (corn [16]; [20]): 0
Plant response rating, Rice (rice): 15
Plant response rating, Sedge, Umbrella (sedge, umbrella): 0
Plant response rating, Ducksalad (Heteranthera limosa): 45
Plant response rating, Barnyardgrass (barnyardgrass [17]): 0

Clc1cnc(Oc2ccccc2-n2cnc(Br)n2)nc1 [Compound 46]
Plant response rating, Barnyardgrass (barnyardgrass [1]; [18]): 0
Barnyardgrass plant response rating (barnyardgrass [1]; [19]): 20
Plant response rating, Crabgrass, Large (large (Lg) crabgrass [2]; [18]): 20
Crabgrass, Large plant response rating (large (Lg) crabgrass [2]; [19]): 100
Plant response rating, Foxtail, Giant (giant foxtail [3]): 0
Foxtail, Giant plant response rating (giant foxtail [3]; 500 g ai/ha): 80
Plant response rating, Morningglory (morningglory [4]): 0
Morningglory plant response rating (morningglory [4]; 500 g ai/ha): 0
Plant response rating, Pigweed (pigweed [5]): 20
Pigweed plant response rating (pigweed [5]; 500 g ai/ha): 90
Plant response rating, Velvetleaf (velvetleaf [6]): 0
Velvetleaf plant response rating (velvetleaf [6]; 500 g ai/ha): 0
Plant response rating, Wheat (wheat [7]): 0
Wheat plant response rating (wheat [7]; 500 g ai/ha): 0
Plant response rating, Corn (corn [8]; [18]): 0
Corn plant response rating (corn [8]; [19]): 0
Plant response rating, Barnyardgrass (barnyardgrass [9]; [18]): 0
Plant response rating, Barnyardgrass (barnyardgrass [9]; [20]): 20
Plant response rating, Crabgrass, Large (large (Lg) crabgrass [10]; [18]): 0
Plant response rating, Crabgrass, Large (large (Lg) crabgrass [10]; [20]): 20
Plant response rating, Foxtail, Giant (giant foxtail [11]; [18]): 0
Plant response rating, Foxtail, Giant (giant foxtail [11]; [20]): 20
Plant response rating, Morningglory (morningglory [12]; [18]): 20
Plant response rating, Morningglory (morningglory [12]; [20]): 50
Plant response rating, Pigweed (pigweed [13]; [18]): 40
Plant response rating, Pigweed (pigweed [13]; [20]): 80
Plant response rating, Velvetleaf (velvetleaf [14]; [18]): 0
Plant response rating, Velvetleaf (velvetleaf [14]; [20]): 40
Plant response rating, Wheat (wheat [15]; [18]): 0
Plant response rating, Wheat (wheat [15]; [20]): 0
Plant response rating, Corn (corn [16]; [18]): 0
Plant response rating, Corn (corn [16]; [20]): 30
Plant response rating, Rice (rice): 0
Plant response rating, Sedge, Umbrella (sedge, umbrella): 0
Plant response rating, Ducksalad (Heteranthera limosa): 0
Plant response rating, Barnyardgrass (barnyardgrass [17]): 0

Fc1ccc(Oc2ncc(Cl)cn2)c(-n2cc(Br)cn2)c1 [Compound 53]
Plant response rating, Barnyardgrass (barnyardgrass [1]; [21]): 100
Plant response rating, Crabgrass, Large (large (Lg) crabgrass [2]; [21]): 100
Foxtail, Giant plant response rating (giant foxtail [3]; 1000 g ai/ha): 100
Morningglory plant response rating (morningglory [4]; 1000 g ai/ha): 60
Pigweed plant response rating (pigweed [5]; 1000 g ai/ha): 100
Velvetleaf plant response rating (velvetleaf [6]; 1000 g ai/ha): 100
Wheat plant response rating (wheat [7]; 1000 g ai/ha): 0
Plant response rating, Corn (corn [8]; [21]): 10
Plant response rating, Barnyardgrass (barnyardgrass [9]; [21]): 90
Plant response rating, Crabgrass, Large (large (Lg) crabgrass [10]; [21]): 70
Plant response rating, Foxtail, Giant (giant foxtail [11]; [21]): 80
Plant response rating, Morningglory (morningglory [12]; [21]): 100
Plant response rating, Pigweed (pigweed [13]; [21]): 100
Plant response rating, Velvetleaf (velvetleaf [14]; [21]): 100
Plant response rating, Wheat (wheat [15]; [21]): 30
Plant response rating, Corn (corn [16]; [21]): 30
Plant response rating, Rice (rice): 0
Plant response rating, Sedge, Umbrella (sedge, umbrella): 0
Plant response rating, Ducksalad (Heteranthera limosa): 75
Plant response rating, Barnyardgrass (barnyardgrass [17]): 0
